Reference: patent US4472421A, “Azole antimycotics and their use in treating skin conditions caused by Pityrosporum ovale” (Bayer Aktiengesellschaft, priority 1974, dated 1984)
≈ marks a conversion by molar mass, not a printed value. Counter-ions that a name gives are not always drawn. Like-named read-outs stand apart in the source and are kept apart here.

Tested on: Pityrosporum ovale
Assay: MIC and PI determination on Abbe's medium agar slants, dilution series
Type: cell-based
Details: Malassezia furfur, 28° C.
Procedure: Pityrosporum ovale was cultured and the MIC determinations were carried out with a large number of azole derivatives. The growth of Pityrosporum ovale is considerably slower than, for example, of species of Candida or Torulopsis--it takes 3 to 5 days. It requires Abbe's medium as a special nutrient medium.
1. Setting up the dilution series of each preparation: 6.4 mg of preparation are dissolved in 1 ml of analytical grade dimethylformamide and 9 ml of distilled water are added. 1 ml now contains 640 mcg of preparation. If 2 ml are withdrawn and added to 2 ml of H2 O, the resulting concentration is 320 mcg/ml. If this is continued progressively,the following dilution series, in mcg/ml, is obtained: 640-320-160-80-40-20-10-5-2.5-1.25-0.625-0.313-0.156-0.078-0.039-0.02-0.01
2. Charging the test tubes: 0.5 ml portions of the particular dilution are introduced into test tubes.
3. Charging with nutrient medium: Abbe's medium is used.
200 ml portions of Abbe's medium are introduced into nutrient medium flasks. For use, the previously calculated amount of Abbe's medium is liquefied in a steaming pot and cooled until only warm to the touch; 4.5 ml are then added to each test tube. A second person receives each test tube and twirls it between his hands, like a kitchen whisk. This achieves good mixing of the diluted preparation with the nutrient medium. Each test tube is then immediately brought into a slanting position, in the same way as is usually employed to prepare agar slants.
The culture control and the nutrient medium control are each 1 test tube in which 0.5 ml of H2 O is introduced in place of the preparation.
4. Inoculation with Pityrosporum ovale: A culture which had been grown for 3 weeks in Benham's fluid medium at 28° C. was used.
After the nutrient medium has solidified thoroughly in all the test tubes, 0.1 ml of culture is allowed to run over each slant, except for the test tube of the nutrient medium control. 0.1 ml of physiological NaCl solution is added to the latter.
5. Incubation and readings: The incubation is carried out at 28° C. After 3 days, the culture control test tubes show germ growth, which reaches an optimum after 5 days.
The MIC=minimum inhibitory concentration, and the PI=partial inhibition (retardation of growth by about 90% relative to the control, that is to say only about 10% of the germs have grown) are read off in comparison to the control.
Of course,--as is usual in microbiology--all the work was carried out under sterile conditions, that is to say, using, for example, sterile test tubes, pipettes, nutrient media and the like.

[1] = 72 h, reading after 3 days, read-out: MIC (minimum inhibitory concentration), reading after 3 days
[2] = 72 h, reading after 3 days, read-out: PI (partial inhibition, growth reduced by at least 90% compared to the control), reading after 3 days
[3] = 120 h, reading after 5 days, read-out: MIC (minimum inhibitory concentration), reading after 5 days
[4] = 120 h, reading after 5 days, read-out: PI (partial inhibition, growth reduced by at least 90% compared to the control), reading after 5 days

| MIC [1] | IC90 [2] | MIC [3] | IC90 [4] | SMILES |
| --- | --- | --- | --- | --- |
| > 64 µg/mL | 32 µg/mL (≈ 117 µM) | > 64 µg/mL | 32 µg/mL (≈ 117 µM) | CC1(n2ccnc2)c2ccccc2CCc2ccccc21 [Example 18] |
| 32 µg/mL (≈ 122 µM) | 4 µg/mL (≈ 15.2 µM) | 32 µg/mL (≈ 122 µM) | 4 µg/mL (≈ 15.2 µM) | CCC(c1ccccc1)(c1ccccc1)n1ccnc1 [Example 14] |
| > 64 µg/mL |  | > 64 µg/mL |  | Brc1cccc(C(c2ccccc2)(n2cncn2)n2cncn2)c1 [Example 22] |
| 8 µg/mL (≈ 23 µM) | < 1 µg/mL | 8 µg/mL (≈ 23 µM) | < 1 µg/mL | CC(C)(C)C(=O)C(Cn1ccnc1)Oc1ccc(-c2ccccc2)cc1 (stereo not drawn) [Example 12] |
| 8 µg/mL (≈ 31 µM) | < 1 µg/mL | 16 µg/mL (≈ 61.9 µM) | < 1 µg/mL | C#CC(c1ccccc1)(c1ccccc1)n1ccnc1 [Example 10] |
| > 64 µg/mL | 64 µg/mL (≈ 158 µM) | > 64 µg/mL | 64 µg/mL (≈ 158 µM) | CC(C)(C)C(O)C(Oc1ccc(Cl)cc1Cl)(c1ccccc1)n1ccnc1 (stereo not drawn) [Example 19] |
| > 64 µg/mL |  | > 64 µg/mL |  | Cn1ccnc1C(c1ccccc1)(c1ccc(-c2ccccc2)cc1)n1ccnc1 (stereo not drawn) [Example 21] |
| > 64 µg/mL | 32 µg/mL (≈ 95.6 µM) | > 64 µg/mL | 32 µg/mL (≈ 95.6 µM) | Clc1cccc(C(c2ccccc2)(n2ccnc2)n2ccnc2)c1 [Example 17] |
| 16 µg/mL (≈ 54.7 µM) | < 1 µg/mL | 16 µg/mL (≈ 54.7 µM) | < 1 µg/mL | COC(=O)C(c1ccccc1)(c1ccccc1)n1ccnc1 [Example 11] |
| > 64 µg/mL | 64 µg/mL (≈ 169 µM) | > 64 µg/mL | 64 µg/mL (≈ 169 µM) | Brc1cccc(C(c2ccccc2)(n2ccnc2)n2ccnc2)c1 [Example 20] |
| 32 µg/mL (≈ 116 µM) | 4 µg/mL (≈ 14.5 µM) | 64 µg/mL (≈ 232 µM) | 4 µg/mL (≈ 14.5 µM) | CC(=O)C(c1ccccc1)(c1ccccc1)n1ccnc1 [Example 15] |
| > 64 µg/mL | 16 µg/mL (≈ 46.4 µM) | > 64 µg/mL | 16 µg/mL (≈ 46.4 µM) | Clc1ccc(C(c2ccccc2)(c2ccccc2)n2ccnc2)cc1 [Example 16] |

More lines, now with the values behind:

| SMILES | MIC [1] | IC90 [2] | MIC [3] | IC90 [4] |
| --- | --- | --- | --- | --- |
| CC(C)(C)C(=O)C(Cn1ccnc1)Oc1ccc(Cl)cc1 (stereo not drawn) [Example 8] | 4 µg/mL (≈ 13 µM) | 2 µg/mL (≈ 6.52 µM) | 8 µg/mL (≈ 26.1 µM) | 4 µg/mL (≈ 13 µM) |
| Clc1ccccc1C(c1ccccc1)(c1ccccc1)n1ccnc1 [Example 13] | 16 µg/mL (≈ 46.4 µM) | 8 µg/mL (≈ 23.2 µM) | 16 µg/mL (≈ 46.4 µM) | 8 µg/mL (≈ 23.2 µM) |
| Cc1ccccc1C1(n2ccnc2)c2ccccc2-c2ccccc21 [Example 9] | 8 µg/mL (≈ 24.8 µM) | 2 µg/mL (≈ 6.2 µM) | 8 µg/mL (≈ 24.8 µM) | 4 µg/mL (≈ 12.4 µM) |
| CC(C)(C)C(=O)C(Oc1ccc(Cl)cc1Cl)n1ccnc1 (stereo not drawn) [Example 2] | < 1 µg/mL |  | < 1 µg/mL |  |
| CC(C)(C)C(=O)C(Oc1ccc(-c2ccc(Cl)cc2)cc1)n1ccnc1 (stereo not drawn) [Example 4, [1-imidazolyl-(1)]-[1-(4'-(4"-chlorophenyl)-phenoxy]-3,3-dimethyl-butan-2-one hydrochloride] | < 1 µg/mL |  | < 1 µg/mL |  |
| CC(C)(C)C(=O)C(Cn1ccnc1)Oc1ccc(Cl)cc1Cl (stereo not drawn) [Example 5, hydrochloride] | 2 µg/mL | < 1 µg/mL | 2 µg/mL | < 1 µg/mL |
| CC(C)(C)C(=O)C(Oc1ccc(Br)cc1)n1ccnc1 (stereo not drawn) [Example 3] | < 1 µg/mL |  | < 1 µg/mL |  |
| CC(C)(C)C(=O)C(Oc1ccc(Cl)cc1)n1ccnc1 (stereo not drawn) [Example 1, [1-imidazolyl-(1)]-[1-(4'-chloro)phenoxy]-3-dimethyl-butane-2-one] | < 1 µg/mL |  | < 1 µg/mL |  |
| CC(C)(C)C(O)C(Oc1ccc(-c2ccccc2)cc1)n1ccnc1 (stereo not drawn) [Example 7] | 4 µg/mL (≈ 11.9 µM) | 2 µg/mL (≈ 5.94 µM) | 8 µg/mL (≈ 23.8 µM) | 2 µg/mL (≈ 5.94 µM) |
